Test results: PubChem BioAssay (NCI)
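Protocol summary: plate cells (96-well), add compound at 5 concentrations, incubate 48 h, interpolate endpoints linearly. GI50 = concentration required for 50% inhibition of growth. Definition used: TGI = concentration required for complete inhibition of growth.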

Legend:
Experiment in all cases: NCI-60 cell line screen, 48 h
HCT-15 colon = test system: HCT-15 colon
HOP-92 NSCLC = test system: HOP-92 NSCLC
UACC-62 melanoma = test system: UACC-62 melanoma
NCI/ADR-RES ovarian = test system: NCI/ADR-RES ovarian
OVCAR-4 ovarian = test system: OVCAR-4 ovarian
SK-MEL-28 melanoma = test system: SK-MEL-28 melanoma
A549 NSCLC = test system: A549 NSCLC
MALME-3M melanoma = test system: MALME-3M melanoma
UACC-257 melanoma = test system: UACC-257 melanoma
CAKI-1 renal = test system: CAKI-1 renal

Compound | GI50 (HCT-15 colon) | TGI (HCT-15 colon) | GI50 (HOP-92 NSCLC) | TGI (HOP-92 NSCLC) | GI50 (UACC-62 melanoma) | TGI (UACC-62 melanoma) | GI50 (NCI/ADR-RES ovarian) | TGI (NCI/ADR-RES ovarian) | GI50 (OVCAR-4 ovarian) | TGI (OVCAR-4 ovarian) | GI50 (SK-MEL-28 melanoma) | TGI (SK-MEL-28 melanoma) | GI50 (A549 NSCLC) | TGI (A549 NSCLC) | GI50 (MALME-3M melanoma) | TGI (MALME-3M melanoma) | GI50 (UACC-257 melanoma) | TGI (UACC-257 melanoma) | GI50 (CAKI-1 renal) | TGI (CAKI-1 renal)
C[C@]12CC[C@@H]3c4cc(OC(F)F)c(OS(N)(=O)=O)cc4CC[C@H]3[C@@H]1CC[C@@H]2OS(N)(=O)=O | 0.593 µM | 15.8 µM | 1.15 µM | 10.6 µM | 1.38 µM | 16.8 µM | 0.696 µM | 28.9 µM | 5.33 µM | 29.5 µM | 2.94 µM | 20.3 µM | 2.52 µM | 34.4 µM | 2.35 µM | 22 µM | 5.87 µM | 24.8 µM | 1.46 µM | 19.8 µM
Cc1ccc(NC(=O)c2cc3ccccc3c(N=Nc3cc(S(=O)(=O)O)ccc3O)c2O)c(C)c1 |  | > 100 µM |  | > 100 µM |  | 83.8 µM |  | > 100 µM |  | > 100 µM |  | > 100 µM |  | 80.9 µM |  | 63.8 µM |  | > 100 µM |  | > 100 µM
COc1ccc2c(c1)oc(=O)c1cc(OC)ccc12 | > 100 µM | > 100 µM | > 100 µM | > 100 µM | 63 µM | > 100 µM | > 100 µM | > 100 µM | > 100 µM | > 100 µM | > 100 µM | > 100 µM | > 100 µM | > 100 µM | > 100 µM | > 100 µM | > 100 µM | > 100 µM | > 100 µM | > 100 µM
COc1cc2ncnc(Nc3cccc(Cl)c3F)c2cc1OC(=O)N1CCN(C)C[C@H]1C | > 41.4 µM | > 88.8 µM | 14.2 µM | > 54.8 µM | > 40.7 µM | > 65.5 µM | > 36.3 µM | > 75.2 µM | > 44.5 µM | > 79.1 µM | > 42.2 µM | > 65.5 µM | > 34.3 µM | > 58.2 µM | > 39.5 µM | > 60.6 µM | > 41.1 µM | > 59.2 µM | 0.555 µM | > 54.1 µM
COc1cccc(/C=N/NC(=O)c2ccccc2N2CCCC2)c1O | 1.76 µM | > 100 µM | 4.67 µM | > 100 µM | 3.73 µM | 19.7 µM | 2.8 µM | > 100 µM | 2.63 µM | > 100 µM | 5.27 µM | > 100 µM | 18.8 µM | > 100 µM | 15 µM | 88.1 µM | 3.05 µM | > 100 µM | 3.97 µM | > 100 µM
COc1ccc(Nc2cc(C)nc(NCc3ccccc3)n2)cc1 | 2.8 µM | 11.9 µM | 1.19 µM | 6.43 µM | 2.84 µM | 14.4 µM | 2.92 µM | 17.6 µM | 2.42 µM | 19.3 µM | 2.39 µM | 6.97 µM | 6.53 µM | 24.7 µM | 2.36 µM | 9.2 µM | 3.18 µM | 13.3 µM | 3.9 µM | 17.2 µM
CC/C(=C(/c1ccc(O)cc1)c1ccc(OCCN)cc1)c1ccccc1 | 1.91 µM | 4.06 µM | 1.46 µM | 5.84 µM | 2.44 µM | 7.43 µM | 3.31 µM | 10.6 µM | 2.88 µM | 16 µM | 1.75 µM | 3.38 µM | 2.97 µM | 8.81 µM | 1.69 µM | 3.53 µM | 10.5 µM | 22.7 µM | 1.64 µM | 4.18 µM
O=[N+]([O-])c1ccc(C2=Nn3c(nnc3-c3ccc(Cl)cc3)SC2)o1 |  | 5.99 µM |  | 8.31 µM |  | 25.9 µM |  | 45.1 µM |  | 6.66 µM |  | 28 µM |  | 48.6 µM |  | 12.4 µM |  | 16.9 µM |  | 18.4 µM
C[C@@H]1CCC([C@@H](C)[C@H]2CC[C@H]3[C@@H]4CC[C@H]5C[C@@H](O)CC[C@]5(C)[C@H]4CC[C@]23C)=NC1 |  | 44.8 µM |  | > 100 µM |  | > 70.8 µM |  | > 100 µM |  | > 100 µM |  | > 77.3 µM |  | > 100 µM |  | > 100 µM |  | > 100 µM |  | 66.6 µM
COc1cc(C(=O)N2CCN(c3ccccc3)CC2)c2ccccc2n1 | 0.149 µM | > 100 µM | 1.47 µM | 29.2 µM | 0.0482 µM | > 100 µM | 0.0361 µM | 0.176 µM | 4.27 µM | > 100 µM | > 100 µM | > 100 µM | 0.101 µM | > 100 µM | 0.0484 µM | > 100 µM | 0.108 µM | > 100 µM | 0.043 µM | > 22.5 µM
CCOC(=O)Nc1nc2ccc(Br)cc2s1 | > 50 µM | > 50 µM | > 50 µM | > 50 µM | > 50 µM | > 50 µM | > 50 µM | > 50 µM | > 50 µM | > 50 µM | > 50 µM | > 50 µM | > 50 µM | > 50 µM | > 50 µM | > 50 µM | > 50 µM | > 50 µM | > 50 µM | > 50 µM
C[C@]12CC[C@@H]3c4cc(O)c(O)cc4CC[C@H]3[C@@H]1CC[C@@H]2O | 0.877 µM | 24.8 µM | 3.32 µM | 29 µM | 3.9 µM | 29.1 µM | 1.3 µM | > 45.4 µM | 16.2 µM | > 100 µM | 5.47 µM | > 100 µM | 7.16 µM | > 82.4 µM | 0.708 µM | 44.4 µM | 13 µM | > 100 µM | 3.83 µM | > 88.9 µM
CC(=O)Nc1c(I)c(NC(C)=O)c(I)c(C(=O)O)c1I | > 100 µM | > 100 µM | > 100 µM | > 100 µM | > 100 µM | > 100 µM | > 100 µM | > 100 µM | > 100 µM | > 100 µM | > 100 µM | > 100 µM | > 100 µM | > 100 µM | > 100 µM | > 100 µM | > 100 µM | > 100 µM | > 100 µM | > 100 µM
